MBIC, MIC and CC50 data for 3 molecules are collected here from US20110098323A1, “INHIBITORS OF BACTERIAL BIOFILM FORMATION” (MICROBIOTIX, INC., priority 2009, published 2011).

The subject of one data set is S. epidermidis 18972. As to the kind of experiment: MBIC/MIC secondary assay (crystal violet biofilm staining / OD600 growth). It counts as cell-based, Staphylococcus epidermidis. The following applies: S. epidermidis 18972, Table 2; for MBIC: lowest concentration inhibiting biofilm formation ≧80%; for MIC: Staphylococcus epidermidis, lowest concentration inhibiting growth ≧80%, read-out: MIC. The protocol: Assays for detecting and measuring bacterial biofilm formation are known in the art. An example of a biofilm formation assay useful in detecting and characterizing biofilm inhibitor compounds is described in Example 1, infra. Briefly, bacterial cells are inoculated into growth medium in individual wells of a 96-well assay plate in the presence or absence of a compound (known biofilm inhibitor or test compound). After incubation for a specified time, growth medium and non-biofilm bacterial cells are removed from each of the wells. The bacterial cells in any biofilms that are adhered to the surface of a well are fixed by addition of ethanol. The ethanol is removed, and the fixed biofilm bacteria cells are stained with crystal violet (CV). The intensity of CV staining is directly correlated with bacterial biofilm formation and is measured in the wells by reading the optical density at 600 nm (OD600). The difference in biofilm formation between untreated control and treated cultures provides an indication of relative biofilm inhibition activity (anti-biofilm activity). Use of different concentrations of an inhibitor in multiple and otherwise duplicate cultures permits determination of a compound's Minimal Biofilm Inhibitory Concentration (MBIC), which is defined herein as the lowest concentration of a compound that inhibits biofilm formation by at least 80% (i.e., ≧80%) compared to untreated control cultures.
A higher throughput was achieved by formatting the assay for use in flat-bottomed 96-well assay plates (Costar 3590 assay plates, Corning Life Sciences, Lowell, Mass.). The biofilm cultures grew on the bottoms of each well in a surface attached mode. In each assay plate, columns 1 and 12 contained untreated cultures, which served as negative controls (0% biofilm inhibition). Each of the assay wells in columns 2-11 contained a unique small molecule from the Microbiotix Screening Library (MSL) at a final concentration of 100 μM. Assay plates were inoculated with 200 μl/well of a culture of Staphylococcus pidermidis 18972 in 0.5×Tryptic Soy Broth (TSB; Becton Dickinson, Franklin Lakes, N.J.) in which the concentration of glucose was adjusted to 0.25% (w/v). The bacterial inocula were prepared by making a 1:100 dilution of an overnight culture grown in TSB in the media used for the screen. After inoculation, assay plates were sealed with foil tape and incubated at 37° C. for 18-20 hours (h). The optical density at 600 nm (OD600) was measured for each well using a VICTOR2V™ multiplate reader (Perkin Elmer, Waltham, Mass.) in order to quantify overall bacterial growth. The assay plates were processed to remove bacterial growth media and non-biofilm cells from the bottom of each assay well. This was accomplished by using a BioTek ELx405™ plate washer (BioTek Instruments, Inc., Winooski, Vt.). Biofilm bacteria were fixed by addition of 50 μl of 95% ethanol for 30 minutes (min). The ethanol was removed, and the fixed biofilm cultures were stained with 50 μl of 0.06% crystal violet (CV) for 60 min. Excess CV was removed by repeated washes using the BioTek ELx405™ plate washer. The amount of CV bound to each assay well was quantified by measuring OD600 using a VICTOR2V™ plate reader (Perkin Elmer).
A secondary assay provided a quantitative measure of both anti-biofilm activity and antibacterial activity in terms of the Minimal Biofilm Inhibitory Concentration (MBIC) and the Minimal Inhibitory Concentration (MIC), respectively. The MBIC and MIC are defined as the lowest compound concentrations that inhibit biofilm formation and bacterial growth, respectively, by at least 80% (i.e., ≧80%). The MBIC/MIC assay is formatted in a manner that is similar to the Microbroth dilution assays described by the Clinical and Laboratory Standards Institute (CLSI; formerly NCCLS) in protocol M7-A7. The growth conditions were optimized for biofilm growth in 96-well assay plates such that the resulting CV staining was within the linear range of detection. […]

In the next data set the test system is S. aureus ATCC 35556. Put plainly: MBIC/MIC secondary assay. The data set is classed as cell-based, Staphylococcus aureus. The following applies: S. aureus ATCC 35556, Table 2; for MIC: Staphylococcus aureus, ATCC35556, read-out: MIC.
A short description of data set [1]: In vitro cytotoxicity assay (CC50), Alamar Blue. The data set is classed as cell-based. The following applies: human, HeLa cells, 10% Fetal Bovine Serum. The method, then: Validated hits were tested for general cytotoxicity against a mammalian cell line. In this assay, an assay plate was seeded with an immortalized human cell line (HeLa) and exposed to a series of two-fold dilutions of each test compound for 72 hours in standard media containing 10% Fetal Bovine Serum. After exposure to the compounds, the cellular viability was assessed using Alamar Blue™ (AccuMed International, Inc.), an oxidation-reduction indicator that is useful for quantitatively measuring cell-mediated cytotoxicity. Alamar Blue reduction was quantified using fluorescence measurements, and the data were analyzed using a two-parameter curve-fitting program (Assay Explorer, Elsevier MDL, San Rafael, Calif.) to determine the CC50 value, i.e., the compound concentration that decreases cellular viability by 50%. Compounds with CC50/MBIC≧50 were given highest priority. Validated hits that met the criteria for high priority were re-ordered from the original vendor and re-tested.

As for `CCOc1cc(/C=C2\SC(=S)N(c3ccc(Br)cc3)C2=O)ccc1O` [MSL-049293, 3-(4-bromophenyl)-5-(3-ethoxy-4-hydroxybenzylidene)-2-thioxothiazolidin-4-one], in the data set on S. epidermidis 18972, the MBIC came out at 12.5 µM and the MIC is at least 100 µM. In the data set with S. aureus ATCC 35556, the MBIC was 1.5625 µM and the MIC is at least 100 µM. Besides, the cytotoxic concentration (CC50) at 72 h in data set [1] was at least 100 µM.

`COc1cc(/C=C2\SC(=S)N(c3cccc(Cl)c3)C2=O)cc(Br)c1O` [MSL-049731, 3-(3-chlorophenyl)-5-(3-bromo-4-hydroxy-5-methoxybenzylidene)-2-thioxothiazolidin-4-one]: in the data set on S. epidermidis 18972, the MBIC was 25 µM and the MIC is at least 100 µM. In addition, in the data set on S. aureus ATCC 35556, the MBIC turned out to be 6.25 µM and the MIC is at least 100 µM.

As to `COc1ccc(C2=C/C(=C/c3ccc(O)c(OC)c3)C(=O)O2)c(OC)c1` [MSL-051097, 3-(4-hydroxy-3-methoxybenzylidene)-5-(2,4-dimethoxyphenyl)furan-2(3H)-one], in the data set on S. epidermidis 18972, the MBIC is 25 µM and the MIC is at least 100 µM. In the data set with S. aureus ATCC 35556, the MBIC stood at 6.25 µM and the MIC is at least 100 µM. Moreover, the CC50 at 72 h in data set [1] amounted to 29.4 µM.

Broadly, the CC50 is the concentration giving 50% cytotoxicity. A lower CC50 goes with harm at low concentration.
